Source: ChEMBL document CHEMBL1909046, “DrugMatrix in vitro pharmacology data”

Legend:
Calcitonin receptor = biological target: T1, Calcitonin receptor (Homo sapiens, UniProt P30988); type: cell membranes, Membrane; conditions: t47d; also: in other assays of this panel Not Active means under 50% inhibition at 10 µM
T1 sequence (P30988 whole entry): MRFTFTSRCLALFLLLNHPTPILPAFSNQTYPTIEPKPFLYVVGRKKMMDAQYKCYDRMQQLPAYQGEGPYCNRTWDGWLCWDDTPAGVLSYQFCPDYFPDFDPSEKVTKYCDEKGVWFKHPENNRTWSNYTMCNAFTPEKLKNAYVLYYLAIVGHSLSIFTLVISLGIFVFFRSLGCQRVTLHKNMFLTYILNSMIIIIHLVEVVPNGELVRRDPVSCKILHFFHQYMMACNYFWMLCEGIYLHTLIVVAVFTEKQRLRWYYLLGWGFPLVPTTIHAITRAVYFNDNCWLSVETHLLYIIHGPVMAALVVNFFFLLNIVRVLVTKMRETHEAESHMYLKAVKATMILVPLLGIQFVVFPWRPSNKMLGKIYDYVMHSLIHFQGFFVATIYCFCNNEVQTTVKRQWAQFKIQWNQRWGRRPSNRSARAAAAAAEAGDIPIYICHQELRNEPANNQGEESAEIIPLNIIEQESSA

Substance-P receptor = Substance-P receptor (Homo sapiens, UniProt P25103); type: cell membranes, CHO, Membrane; conditions: cho; also: in other assays of this panel Not Active means under 50% inhibition at 10 µM
Substance-P receptor, sequence (P25103 whole entry): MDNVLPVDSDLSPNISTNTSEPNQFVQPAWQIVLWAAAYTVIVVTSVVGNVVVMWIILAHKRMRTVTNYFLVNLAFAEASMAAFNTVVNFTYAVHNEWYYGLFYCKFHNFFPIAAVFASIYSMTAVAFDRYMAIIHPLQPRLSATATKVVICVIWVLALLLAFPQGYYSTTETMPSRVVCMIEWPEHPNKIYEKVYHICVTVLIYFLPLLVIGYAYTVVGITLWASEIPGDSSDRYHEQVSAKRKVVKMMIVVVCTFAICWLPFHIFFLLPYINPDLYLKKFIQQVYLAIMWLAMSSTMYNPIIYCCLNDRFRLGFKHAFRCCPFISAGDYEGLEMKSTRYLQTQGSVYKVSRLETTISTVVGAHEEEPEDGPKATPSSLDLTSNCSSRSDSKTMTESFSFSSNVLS

Cannabinoid receptor 1 = Cannabinoid receptor 1 (Homo sapiens, UniProt P21554); type: cell membranes, Membrane; conditions: chem-1; also: in other assays of this panel Not Active means under 50% inhibition at 10 µM
Cannabinoid receptor 1, sequence (P21554 whole entry): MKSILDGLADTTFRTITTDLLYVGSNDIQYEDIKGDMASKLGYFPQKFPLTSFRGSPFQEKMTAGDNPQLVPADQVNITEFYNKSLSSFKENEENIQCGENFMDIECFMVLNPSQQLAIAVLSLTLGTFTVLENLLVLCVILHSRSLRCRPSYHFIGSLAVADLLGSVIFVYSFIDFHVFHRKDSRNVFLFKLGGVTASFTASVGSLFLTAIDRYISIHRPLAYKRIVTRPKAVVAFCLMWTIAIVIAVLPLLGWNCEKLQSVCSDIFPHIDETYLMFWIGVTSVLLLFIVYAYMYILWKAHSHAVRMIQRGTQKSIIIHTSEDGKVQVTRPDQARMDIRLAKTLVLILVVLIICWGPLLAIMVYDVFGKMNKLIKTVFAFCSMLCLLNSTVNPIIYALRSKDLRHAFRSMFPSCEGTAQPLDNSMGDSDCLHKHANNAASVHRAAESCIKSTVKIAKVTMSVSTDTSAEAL

[1] = DRUGMATRIX: Glutamate, Kainate radioligand binding (ligand: [3H] Kainic acid); type: cell membranes, Rattus norvegicus, Wistar, Brain, Membrane; conditions: Not Active = under 50% inhibition at 10 µM
[2] = biological target: Mitogen-activated protein kinase 1 (Homo sapiens, UniProt P28482); assay: DRUGMATRIX: Protein Serine/Threonine Kinase, ERK2 enzyme inhibition (substrate: Myelin Basic Protein); set-up: species or system Escherichia coli; conditions: Not Active = under 50% inhibition at 10 µM
Mitogen-activated protein kinase 1, sequence (P28482 whole entry): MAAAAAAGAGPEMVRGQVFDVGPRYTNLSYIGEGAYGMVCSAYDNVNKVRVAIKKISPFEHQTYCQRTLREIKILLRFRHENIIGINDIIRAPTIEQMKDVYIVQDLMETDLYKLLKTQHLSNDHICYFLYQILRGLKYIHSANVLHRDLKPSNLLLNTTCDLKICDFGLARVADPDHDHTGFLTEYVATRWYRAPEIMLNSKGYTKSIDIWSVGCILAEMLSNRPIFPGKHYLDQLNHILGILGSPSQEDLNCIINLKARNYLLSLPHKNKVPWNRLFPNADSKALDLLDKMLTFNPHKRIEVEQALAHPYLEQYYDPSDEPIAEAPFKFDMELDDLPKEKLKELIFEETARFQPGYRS

Cytochrome P450 2E1 = Cytochrome P450 2E1 (Homo sapiens, UniProt P05181); conditions: bti-tn-5b1-4; also: in other assays of this panel Not Active means under 50% inhibition at 10 µM
Cytochrome P450 2E1, sequence (P05181 whole entry): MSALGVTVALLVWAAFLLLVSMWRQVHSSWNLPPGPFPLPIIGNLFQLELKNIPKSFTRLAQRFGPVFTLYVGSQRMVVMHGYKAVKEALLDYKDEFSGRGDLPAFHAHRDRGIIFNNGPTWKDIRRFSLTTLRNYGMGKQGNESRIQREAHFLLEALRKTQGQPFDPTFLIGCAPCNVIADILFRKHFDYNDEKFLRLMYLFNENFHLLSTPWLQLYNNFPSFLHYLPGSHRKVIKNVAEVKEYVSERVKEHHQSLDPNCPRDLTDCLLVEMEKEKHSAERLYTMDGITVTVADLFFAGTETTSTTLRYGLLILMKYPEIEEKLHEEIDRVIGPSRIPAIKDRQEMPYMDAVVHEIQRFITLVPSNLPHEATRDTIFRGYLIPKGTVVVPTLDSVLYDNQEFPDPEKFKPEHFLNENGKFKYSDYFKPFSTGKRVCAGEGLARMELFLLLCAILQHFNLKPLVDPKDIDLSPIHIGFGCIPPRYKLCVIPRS

C[C@H]1c2cccc(O)c2C(=O)C2=C(O)[C@]3(O)C(=O)C(C(N)=O)=C(O)[C@@H](N(C)C)[C@@H]3[C@@H](O)[C@@H]21.O [DOXYCYCLINE]
Not Active: IC50 (Calcitonin receptor) | IC50 (Substance-P receptor) | IC50 (Cannabinoid receptor 1) | IC50 [1] | Ki [1] | IC50 [2] | IC50 (Cytochrome P450 2E1) | Ki (Cytochrome P450 2E1)

Sc1ncnc2nc[nH]c12 [MERCAPTOPURINE ANHYDROUS]
Not Active: IC50 (Calcitonin receptor) | IC50 (Substance-P receptor) | IC50 (Cannabinoid receptor 1) | IC50 [1] | Ki [1] | IC50 [2] | IC50 (Cytochrome P450 2E1) | Ki (Cytochrome P450 2E1)

Nc1nc(N)nc(-c2cc(Cl)ccc2Cl)n1.O=C(O)/C=C\C(=O)O [IRSOGLADINE MALEATE]
Not Active: IC50 (Calcitonin receptor) | IC50 (Substance-P receptor) | IC50 (Cannabinoid receptor 1) | IC50 [1] | Ki [1] | IC50 [2] | IC50 (Cytochrome P450 2E1) | Ki (Cytochrome P450 2E1)

CC1(C)O[C@@H]2C[C@H]3[C@@H]4CCC5=CC(=O)CC[C@]5(C)[C@@]4(F)[C@@H](O)C[C@]3(C)[C@]2(C(=O)CCl)O1 [HALCINONIDE]
Not Active: IC50 (Calcitonin receptor) | IC50 (Substance-P receptor) | IC50 (Cannabinoid receptor 1) | IC50 [1] | Ki [1] | IC50 [2] | IC50 (Cytochrome P450 2E1) | Ki (Cytochrome P450 2E1)

O=c1[nH]c(=O)n([C@H]2C[C@H](O)[C@@H](CO)O2)cc1I [IDOXURIDINE]
Not Active: IC50 (Calcitonin receptor) | IC50 (Substance-P receptor) | IC50 (Cannabinoid receptor 1) | IC50 [1] | Ki [1] | IC50 [2] | IC50 (Cytochrome P450 2E1) | Ki (Cytochrome P450 2E1)

CC(C)C(=O)Nc1ccc([N+](=O)[O-])c(C(F)(F)F)c1 [FLUTAMIDE]
Not Active: IC50 (Calcitonin receptor) | IC50 (Substance-P receptor) | IC50 (Cannabinoid receptor 1) | IC50 [1] | Ki [1] | IC50 [2] | IC50 (Cytochrome P450 2E1) | Ki (Cytochrome P450 2E1)

O=C(O)CCCc1ccc(N(CCCl)CCCl)cc1 [CHLORAMBUCIL]
Not Active: IC50 (Calcitonin receptor) | IC50 (Substance-P receptor) | IC50 (Cannabinoid receptor 1) | IC50 [1] | Ki [1] | IC50 [2] | IC50 (Cytochrome P450 2E1) | Ki (Cytochrome P450 2E1)

CCCC1O[C@@H]2C[C@H]3[C@@H]4CCC5=CC(=O)C=C[C@]5(C)[C@H]4[C@@H](O)C[C@]3(C)[C@]2(C(=O)CO)O1 (stereo partly drawn) [BUDESONIDE]
Not Active: IC50 (Calcitonin receptor) | IC50 (Substance-P receptor) | IC50 (Cannabinoid receptor 1) | IC50 [1] | Ki [1] | IC50 [2] | IC50 (Cytochrome P450 2E1) | Ki (Cytochrome P450 2E1)

COCCc1ccc(OCC(O)CNC(C)C)cc1 (stereo not drawn) [METOPROLOL]
Not Active: IC50 (Calcitonin receptor) | IC50 (Substance-P receptor) | IC50 (Cannabinoid receptor 1) | IC50 [1] | Ki [1] | IC50 [2] | IC50 (Cytochrome P450 2E1) | Ki (Cytochrome P450 2E1)

CC1CC(OC(=O)C(O)c2ccccc2)CC(C)(C)C1 (stereo not drawn) [CYCLANDELATE]
Not Active: IC50 (Calcitonin receptor) | IC50 (Substance-P receptor) | IC50 (Cannabinoid receptor 1) | IC50 [1] | Ki [1] | IC50 [2] | IC50 (Cytochrome P450 2E1) | Ki (Cytochrome P450 2E1)

C[C@]12CCC(=O)C=C1CC[C@@H]1[C@@H]2CC[C@@]2(C)[C@H]1CC[C@]2(C)O [METHYLTESTOSTERONE]
Not Active: IC50 (Calcitonin receptor) | IC50 (Substance-P receptor) | IC50 (Cannabinoid receptor 1) | IC50 [1] | Ki [1] | IC50 [2] | IC50 (Cytochrome P450 2E1) | Ki (Cytochrome P450 2E1)

Nc1nc2c(ncn2COCCO)c(=O)[nH]1 [ACYCLOVIR]
Not Active: IC50 (Calcitonin receptor) | IC50 (Substance-P receptor) | IC50 (Cannabinoid receptor 1) | IC50 [1] | Ki [1] | IC50 [2] | IC50 (Cytochrome P450 2E1) | Ki (Cytochrome P450 2E1)

CN(C)CCCN1c2ccccc2Sc2ccccc21 [PROMAZINE]
Not Active: IC50 (Calcitonin receptor) | IC50 (Substance-P receptor) | IC50 (Cannabinoid receptor 1) | IC50 [1] | Ki [1] | IC50 [2] | IC50 (Cytochrome P450 2E1) | Ki (Cytochrome P450 2E1)

Cc1c(C)c2c(c(C)c1O)CC[C@@](C)(CCC[C@H](C)CCC[C@H](C)CCCC(C)C)O2 [ALPHA-TOCOPHEROL]
Not Active: IC50 (Calcitonin receptor) | IC50 (Substance-P receptor) | IC50 (Cannabinoid receptor 1) | IC50 [1] | Ki [1] | IC50 [2] | IC50 (Cytochrome P450 2E1) | Ki (Cytochrome P450 2E1)

Cc1ccc(/N=C/N(C)/C=N/c2ccc(C)cc2C)c(C)c1 [AMITRAZ]
Not Active: IC50 (Calcitonin receptor) | IC50 (Substance-P receptor) | IC50 (Cannabinoid receptor 1) | IC50 [1] | Ki [1] | IC50 [2] | IC50 (Cytochrome P450 2E1) | Ki (Cytochrome P450 2E1)

COc1cc2c3cc1Oc1cc(ccc1O)C[C@@H]1c4c(cc(OC)c(O)c4Oc4ccc(cc4)C[C@@H]3N(C)CC2)CC[N+]1(C)C.[Cl-]
Not Active: IC50 (Calcitonin receptor) | IC50 (Substance-P receptor) | IC50 (Cannabinoid receptor 1) | IC50 [1] | Ki [1] | IC50 [2] | IC50 (Cytochrome P450 2E1) | Ki (Cytochrome P450 2E1)

C[C@H](CCC(=O)O)[C@H]1CC[C@H]2[C@@H]3[C@H](O)C[C@@H]4C[C@H](O)CC[C@]4(C)[C@H]3C[C@H](O)[C@]12C [CHOLIC ACID]
Not Active: IC50 (Calcitonin receptor) | IC50 (Substance-P receptor) | IC50 (Cannabinoid receptor 1) | IC50 [1] | Ki [1] | IC50 [2] | IC50 (Cytochrome P450 2E1) | Ki (Cytochrome P450 2E1)

O=C(CCCN1CC=C(n2c(=O)[nH]c3ccccc32)CC1)c1ccc(F)cc1 [DROPERIDOL]
Not Active: IC50 (Calcitonin receptor) | IC50 (Substance-P receptor) | IC50 (Cannabinoid receptor 1) | IC50 [1] | Ki [1] | IC50 [2] | IC50 (Cytochrome P450 2E1) | Ki (Cytochrome P450 2E1)

Cc1cc(C2CCCCC2)n(O)c(=O)c1 [CICLOPIROX]
Not Active: IC50 (Calcitonin receptor) | IC50 (Substance-P receptor) | IC50 (Cannabinoid receptor 1) | IC50 [1] | Ki [1] | IC50 [2] | IC50 (Cytochrome P450 2E1) | Ki (Cytochrome P450 2E1)

CC[C@@]1(O)C[C@H](O[C@H]2C[C@H](N(C)C)[C@H](O[C@H]3C[C@H](O)[C@H](O[C@H]4CCC(=O)[C@H](C)O4)[C@H](C)O3)[C@H](C)O2)c2c(cc3c(c2O)C(=O)c2c(O)cccc2C3=O)[C@H]1C(=O)OC [ACLARUBICIN]
Not Active: IC50 (Calcitonin receptor) | IC50 (Substance-P receptor) | IC50 (Cannabinoid receptor 1) | IC50 [1] | Ki [1] | IC50 [2] | IC50 (Cytochrome P450 2E1) | Ki (Cytochrome P450 2E1)

CC(=O)O[C@@]12CO[C@@H]1C[C@H](O)[C@@]1(C)C(=O)[C@H](O)C3=C(C)[C@@H](OC(=O)[C@H](O)[C@@H](NC(=O)OC(C)(C)C)c4ccccc4)C[C@@](O)([C@@H](OC(=O)c4ccccc4)[C@H]21)C3(C)C.O.O.O [DOCETAXEL]
Not Active: IC50 (Calcitonin receptor) | IC50 (Substance-P receptor) | IC50 (Cannabinoid receptor 1) | IC50 [1] | Ki [1] | IC50 [2] | IC50 (Cytochrome P450 2E1) | Ki (Cytochrome P450 2E1)
